pIC50: −log10 of the molar value.

Sequence of HPK1 (Q92918 1-346 limits assumed): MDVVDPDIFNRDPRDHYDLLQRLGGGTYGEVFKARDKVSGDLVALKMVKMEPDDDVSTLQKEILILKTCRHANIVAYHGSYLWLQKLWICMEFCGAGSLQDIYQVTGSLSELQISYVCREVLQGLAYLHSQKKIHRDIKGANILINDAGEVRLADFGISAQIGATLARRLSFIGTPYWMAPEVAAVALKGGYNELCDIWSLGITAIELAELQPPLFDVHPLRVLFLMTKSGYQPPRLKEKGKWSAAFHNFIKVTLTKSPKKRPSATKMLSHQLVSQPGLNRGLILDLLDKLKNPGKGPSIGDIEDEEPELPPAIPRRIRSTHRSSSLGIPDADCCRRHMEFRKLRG

This assay concerns the target HPK1 (Homo sapiens (Human), UniProt Q92918). Briefly: HPK1 Inhibition Assay (ADP-Glo kinase assay). It counts as biochemical. The settings on record: ATP 10 μM. A digest of the protocol: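 ADP-Glo luminescence read-out after 1 h room-temperature kinase reaction with 10 μM ATP and 0.1 μg/ml MBP. Recombinant human HPK1 at 7.5 ng/μl; buffer 40 mM Tris pH 7.5, 20 mM MgCl2. Compounds serially diluted 5-fold over 10 points from 10 mM DMSO stock.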
In general terms: ADP-Glo first removes unused ATP, then detects ADP through luciferase.
The term pIC50 denotes −log10 of the IC50, conventionally taken in molar units. In the case of `CC1(C)CN(c2c(NC(=O)c3ccc(=O)n(-c4c(F)cccc4F)n3)ccc3nn([C@@H]4CCOC4)cc23)C[C@H]1N` [Example 323, N-(4-((S)-4-amino-3,3-dimethylpyrrolidin-1-yl)-2-((R)-tetrahydrofuran-3-yl)-2H-indazol-5-yl)-1-(2,6-difluorophenyl)-6-oxo-1,6-dihydropyridazine-3-carboxamide], the negative-log IC50 (pIC50) is > 7.00.
Take `CC1(C)CN(c2c(NC(=O)c3ccc(=O)n(-c4c(F)cccc4F)n3)ccc3nn([C@H]4CCOC4)cc23)C[C@@H]1N` [Example 324, N-(4-((R)-4-amino-3,3-dimethylpyrrolidin-1-yl)-2-((S)-tetrahydrofuran-3-yl)-2H-indazol-5-yl)-1-(2,6-difluorophenyl)-6-oxo-1,6-dihydropyridazine-3-carboxamide]: the negative logarithm of the IC50 (pIC50) is > 7.00.
In the case of `CC1(C)CN(c2c(NC(=O)c3ccc(=O)n(-c4c(F)cccc4F)n3)ccc3nn([C@H]4CCOC4)cc23)C[C@H]1N` [Example 325, N-(4-((S)-4-amino-3,3-dimethylpyrrolidin-1-yl)-2-((S)-tetrahydrofuran-3-yl)-2H-indazol-5-yl)-1-(2,6-difluorophenyl)-6-oxo-1,6-dihydropyridazine-3-carboxamide] it was > 7.00; in that of `C[C@H]1CN(c2c(NC(=O)c3ccc(=O)n(-c4c(F)cccc4F)n3)ccc3nn([C@@H]4CCOC4)cc23)C[C@@H]1N` [Example 326, N-(4-((3R,4S)-3-amino-4-methylpyrrolidin-1-yl)-2-((R)-tetrahydrofuran-3-yl)-2H-indazol-5-yl)-1-(2,6-difluorophenyl)-6-oxo-1,6-dihydropyridazine-3-carboxamide], > 7.00; in that of `C[C@H]1CN(c2c(NC(=O)c3ccc(=O)n(-c4c(F)cccc4F)n3)ccc3nn([C@H]4CCOC4)cc23)C[C@@H]1N` [Example 327, N-(4-((3R,4S)-3-amino-4-methylpyrrolidin-1-yl)-2-((S)-tetrahydrofuran-3-yl)-2H-indazol-5-yl)-1-(2,6-difluorophenyl)-6-oxo-1,6-dihydropyridazine-3-carboxamide], > 7.00.
For the molecule `COCCn1cc2c(N3CC[C@@H](N)C3)c(NC(=O)c3ccc(=O)n(-c4c(F)cccc4F)n3)ccc2n1` [Example 328, (R)-N-(4-(3-aminopyrrolidin-1-yl)-2-(2-methoxyethyl)-2H-indazol-5-yl)-1-(2,6-difluorophenyl)-6-oxo-1,6-dihydropyridazine-3-carboxamide], the pIC50 was > 7.00.
In the case of `CCn1cc2c(N3CC[C@@H](N)C3)c(NC(=O)c3ccc(=O)n(-c4c(F)cccc4F)n3)ccc2n1` [Example 329, (R)-N-(4-(3-aminopyrrolidin-1-yl)-2-ethyl-2H-indazol-5-yl)-1-(2,6-difluorophenyl)-6-oxo-1,6-dihydropyridazine-3-carboxamide], the negative logarithm of the IC50 (pIC50) is > 7.00.
In the case of `N[C@@H]1CCN(c2c(NC(=O)c3ccc(=O)n(-c4c(F)cccc4F)n3)ccc3nn(CC4CC4)cc23)C1` [Example 330, (R)-N-(4-(3-aminopyrrolidin-1-yl)-2-(cyclopropylmethyl)-2H-indazol-5-yl)-1-(2,6-difluorophenyl)-6-oxo-1,6-dihydropyridazine-3-carboxamide] it was > 7.00; in that of `CC(C)Cn1cc2c(N3CC[C@@H](N)C3)c(NC(=O)c3ccc(=O)n(-c4c(F)cccc4F)n3)ccc2n1` [Example 331, (R)-N-(4-(3-aminopyrrolidin-1-yl)-2-isobutyl-2H-indazol-5-yl)-1-(2,6-difluorophenyl)-6-oxo-1,6-dihydropyridazine-3-carboxamide], > 7.00.
In the case of `C[C@@H]1CN(c2c(NC(=O)c3ccc(=O)n(-c4c(F)cccc4F)n3)ccc3nn(C4CCC(F)(F)CC4)cc23)C[C@@H]1N` [Example 332, N-(4-((3R,4R)-3-amino-4-methylpyrrolidin-1-yl)-2-(4,4-difluorocyclohexyl)-2H-indazol-5-yl)-1-(2,6-difluorophenyl)-6-oxo-1,6-dihydropyridazine-3-carboxamide] it was > 7.00; in that of `C[C@@H]1CN(c2c(NC(=O)c3ccc(=O)n(-c4c(F)cccc4F)n3)ccc3nn(C4CCCC4)cc23)C[C@@H]1N` [Example 333, N-(4-((3R,4R)-3-amino-4-methylpyrrolidin-1-yl)-2-cyclopentyl-2H-indazol-5-yl)-1-(2,6-difluorophenyl)-6-oxo-1,6-dihydropyridazine-3-carboxamide], > 7.00; in that of `CC1(C)CN(c2c(NC(=O)c3ccc(=O)n(-c4c(F)cccc4F)n3)ccc3nn(C4CC4)cc23)C[C@@H]1N` [Example 334, (R)-N-(4-(4-amino-3,3-dimethylpyrrolidin-1-yl)-2-cyclopropyl-2H-indazol-5-yl)-1-(2,6-difluorophenyl)-6-oxo-1,6-dihydropyridazine-3-carboxamide], > 7.00.
Turning to `CC1(C)CN(c2c(NC(=O)c3ccc(=O)n(-c4c(F)cccc4F)n3)ccc3nn(C4CC4)cc23)C[C@H]1N` [Example 335, (S)-N-(4-(4-amino-3,3-dimethylpyrrolidin-1-yl)-2-cyclopropyl-2H-indazol-5-yl)-1-(2,6-difluorophenyl)-6-oxo-1,6-dihydropyridazine-3-carboxamide], the negative logarithm of the IC50 (pIC50) is > 7.00.
In the case of `N[C@H]1CN(c2c(NC(=O)c3ccc(=O)n(-c4c(F)cccc4F)n3)ccc3nn(C4CC4)cc23)CC12CC2` [Example 336, (R)-N-(4-(7-amino-5-azaspiro[2.4]heptan-5-yl)-2-cyclopropyl-2H-indazol-5-yl)-1-(2,6-difluorophenyl)-6-oxo-1,6-dihydropyridazine-3-carboxamide] it was > 7.00; in that of `N[C@@H]1CCN(c2c(NC(=O)c3ccc(=O)n(-c4c(F)cccc4F)n3)ccc3nn(C4CCOCC4)cc23)C1` [Example 337, (R)-N-(4-(3-aminopyrrolidin-1-yl)-2-(tetrahydro-2H-pyran-4-yl)-2H-indazol-5-yl)-1-(2,6-difluorophenyl)-6-oxo-1,6-dihydropyridazine-3-carboxamide], > 7.00; in that of `N[C@@H]1CCN(c2c(NC(=O)c3ccc(=O)n(-c4c(F)cccc4F)n3)ccc3nn(CC(F)(F)F)cc23)C1` [Example 338, (R)-N-(4-(3-aminopyrrolidin-1-yl)-2-(2,2,2-trifluoroethyl)-2H-indazol-5-yl)-1-(2,6-difluorophenyl)-6-oxo-1,6-dihydropyridazine-3-carboxamide], > 7.00.
As for `[2H]C([2H])([2H])C(n1cc2c(N3C[C@H](N)C4(CC4)C3)c(NC(=O)c3ccc(=O)n(-c4c(F)cccc4F)n3)ccc2n1)C([2H])([2H])[2H]` [Example 339], the pIC50 is > 7.00.
Turning to `CC(C)n1nnc2c(N3C[C@H](N)C4(CC4)C3)c(NC(=O)c3ccc(=O)n(-c4c(F)cccc4F)n3)ccc21` [Example 340, 1-(2,6-difluorophenyl)-N-{4-[(7R)-7-amino-5-azaspiro[2.4]heptan-5-yl]-1-(prop-2-yl)benzo[d][1,2,3]triazol-5-yl}-6-oxo-1,2-diazine-3-carboxamide], the pIC50 was > 7.00.
`CC(C)n1nnc2c(N3C[C@@H](C)[C@@H](N)C3)c(NC(=O)c3ccc(=O)n(-c4c(F)cccc4F)n3)ccc21` [Example 341, N-(4-((3R,4R)-3-amino-4-methylpyrrolidin-1-yl)-1-isopropyl-1H-benzo[d][1,2,3]triazol-5-yl)-1-(2,6-difluorophenyl)-6-oxo-1,6-dihydropyridazine-3-carboxamide]: the negative logarithm of the IC50 (pIC50) is > 7.00.
In the case of `N#Cc1ccncc1-c1ccc(NC(=O)c2ccc(=O)n(-c3c(F)cccc3F)n2)c(N2CCNCC2)c1` [Example 342, N-(4-(4-cyanopyridin-3-yl)-2-(piperazin-1-yl)phenyl)-1-(2,6-difluorophenyl)-6-oxo-1,6-dihydropyridazine-3-carboxamide] it was > 7.00; in that of `N#Cc1ccncc1-c1ccc(NC(=O)c2ccc(=O)n(-c3c(F)cccc3F)n2)c(N2CC[C@@H](N)C2)c1` [Example 343, (R)-N-(2-(3-aminopyrrolidin-1-yl)-4-(4-cyanopyridin-3-yl)phenyl)-1-(2,6-difluorophenyl)-6-oxo-1,6-dihydropyridazine-3-carboxamide], > 7.00; in that of `N#Cc1ccncc1-c1ccc(NC(=O)c2ccc(=O)n(-c3c(F)cccc3F)n2)c(N2CC[C@H](N)C2)c1` [Example 344, (S)-N-(2-(3-aminopyrrolidin-1-yl)-4-(4-cyanopyridin-3-yl)phenyl)-1-(2,6-difluorophenyl)-6-oxo-1,6-dihydropyridazine-3-carboxamide], > 7.00.
As for `N#Cc1ccncc1-c1ccc(NC(=O)c2ccc(=O)n(-c3c(F)cccc3F)n2)c(N2CCC[C@@H](N)C2)c1` [Example 345, (R)-N-(2-(3-aminopiperidin-1-yl)-4-(4-cyanopyridin-3-yl)phenyl)-1-(2,6-difluorophenyl)-6-oxo-1,6-dihydropyridazine-3-carboxamide], the pIC50 was > 7.00.
Take `N#Cc1ccncc1-c1ccc(NC(=O)c2ccc(=O)n(-c3c(F)cccc3F)n2)c(N2CCC(N)CC2)c1` [Example 346, N-(2-(4-aminopiperidin-1-yl)-4-(4-cyanopyridin-3-yl)phenyl)-1-(2,6-difluorophenyl)-6-oxo-1,6-dihydropyridazine-3-carboxamide]: the pIC50 was > 7.00.
On to `N#Cc1ccncc1-c1ccc(NC(=O)c2ccc(=O)n(-c3c(F)cccc3F)n2)c(N2C[C@@H](N)C[C@H]2CO)c1` [Example 347, N-(2-((2S,4S)-4-amino-2-(hydroxymethyl)pyrrolidin-1-yl)-4-(4-cyanopyridin-3-yl)phenyl)-1-(2,6-difluorophenyl)-6-oxo-1,6-dihydropyridazine-3-carboxamide], for which the pIC50 is > 7.00.
In the case of `C[C@]1(N)CCN(c2cc(-c3cnccc3C#N)ccc2NC(=O)c2ccc(=O)n(-c3c(F)cccc3F)n2)C1` [Example 348, (S)-N-(2-(3-amino-3-methylpyrrolidin-1-yl)-4-(4-cyanopyridin-3-yl)phenyl)-1-(2,6-difluorophenyl)-6-oxo-1,6-dihydropyridazine-3-carboxamide] it was > 7.00.

The record behind these values is patent US20250122174A1 (Shenzhen Yuanli Shenwan Innovative Medicine Co., Ltd., priority 2022, published 2025).
